Experimental data from patent publication US10414811B2, “Protease-resistant lipidated GLP-1 analogs” (MEDIMMUNE LIMITED, priority 2015, dated 2019).
Like-named read-outs stand apart in the source and are kept apart here. Numbered stars: 1 amine (or outer) side, 2 acyl side, 3 side chain; on linkers, the order of the positions; unused ones are H or OH. Square brackets hold non-standard residues; d marks the D form. Side chains are listed from the residue outwards. Peptide text beside a SMILES is read from it. * marks the point of attachment. C18 diacid = O=C(O)CCCCCCCCCCCCCCCCC(=O)*; γGlu = O=C(O)[C@H](CCC(=O)[*:2])N[*:1]; αMeF = C[C@](N)(Cc1ccccc1)C(=O)O; αMeK = C[C@](N)(CCCCN)C(=O)O; Lauroyl = CCCCCCCCCCCC(=O)*; αMeS = C[C@](N)(CO)C(=O)O; AEEA = NCCOCCOCC(=O)O; Aib = CC(C)(N)C(=O)O

Columns and labels:
Format in all cases: cell-based
[1] = target: T1, human glucagon receptor (GCGR) (Homo sapiens, UniProt P47871); experiment: cAMP assay, human GCGR cells
T1 construct: expressed in transfected cells
Summary of the method: (§1)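 Peptide-stimulated cAMP measured by two-step HTRF after a 30 min room-temperature incubation with receptor-expressing cells (hGLP-1R, hGIPR at 1×10^5 cells/ml; hGCGR at 2×10^5 cells/ml). Duplicate dilutions; EC50 from 4-parameter logistic fit of % Delta F.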

[2] = target: T2, human glucose-dependent insulinotropic peptide receptor (GIPR) (Homo sapiens, UniProt P48546); experiment: cAMP assay, human GIPR cells
T2 construct: expressed in transfected cells
T2 sequence (P48546 22-466): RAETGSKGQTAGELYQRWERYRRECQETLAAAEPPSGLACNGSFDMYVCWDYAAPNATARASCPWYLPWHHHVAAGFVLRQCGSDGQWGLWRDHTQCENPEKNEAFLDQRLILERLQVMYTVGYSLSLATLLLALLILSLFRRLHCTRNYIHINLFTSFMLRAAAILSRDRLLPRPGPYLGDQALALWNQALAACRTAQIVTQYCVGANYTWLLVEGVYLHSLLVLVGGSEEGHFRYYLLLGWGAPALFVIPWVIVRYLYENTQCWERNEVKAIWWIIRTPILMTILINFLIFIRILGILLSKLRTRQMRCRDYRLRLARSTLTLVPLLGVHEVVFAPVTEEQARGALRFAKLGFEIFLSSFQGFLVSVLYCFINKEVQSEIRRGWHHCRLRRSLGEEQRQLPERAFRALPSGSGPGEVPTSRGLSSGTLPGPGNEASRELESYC
Summary of the method: as §1

[3] = target: T3, human GLP-1 receptor (GLP-1R) (Homo sapiens, UniProt P43220); experiment: cAMP assay, human GLP-1R cells
T3 construct: expressed in transfected cells
Method: Sample dilutions are made in duplicate.
A frozen cryo-vial of cells expressing the receptor of interest is thawed rapidly in a water-bath, transferred to pre-warmed assay buffer and spun at 240×g for 5 minutes. Cells are re-suspended in assay buffer at a batch-dependent optimized concentration (e.g. hGCGR cells at 2×10^5 cells/ml, hGLP-1R and hGIPR cells at 1×10^5 cells/ml).
To this, 5 μL cell suspension is added and the plates incubated at room temperature for 30 minutes.
cAMP levels are measured using a commercially available cAMP dynamic 2 HTRF kit (Cisbio, Cat #62AM4PEJ), following the two step protocol as per manufacturer's recommendations. In brief; anti-cAMP cryptate (donor fluorophore) and cAMP-d2 (acceptor fluorophore) are made up separately by diluting each 1/20 in conjugate & lysis buffer provided in the kit. 5 μL anti-cAMP cryptate is added to wells of the assay plate, and 5 μL cAMP-d2 is added to wells except non-specific binding (NSB) wells, to which conjugate and lysis buffer are added. […] EC50 values of the synthetic peptides determined in cAMP assays are then determined.
Data is transformed to % Delta F as described in the manufacturer's guidelines and analyzed by 4-parameter logistic fit to determine EC50 values. […] To compare the balance of activities at the GLP-1R and GCGR between different peptides and across different conditions, these can be correlated, where the EC50's are related to those of comparator peptides.

[4] = cAMP assay, first determination (n1), read-out: Primary assay EC50 Gluc-R (n1)
[5] = cAMP assay, second determination (n2), read-out: Primary assay EC50 Gluc-R (n2)
[6] = cAMP assay, first determination (n1), read-out: Primary assay EC50 GIP-R (n1)
[7] = cAMP assay, second determination (n2), read-out: Primary assay EC50 GIP-R (n2)
[8] = cAMP assay, first determination (n1), read-out: Primary assay EC50 GLP-1R n1
[9] = cAMP assay, second determination (n2), read-out: Primary assay EC50 GLP-1R n2
[10] = mean of n1 and n2, read-out: Mean pM GLP-1R
[11] = tris-lipidated peptides, second replicate, read-out: Primary assay EC50 Gluc-R (n2)
[12] = tris-lipidated peptides, second replicate, read-out: Primary assay EC50 GIP-R (n2)
[13] = tris-lipidated peptides, mean of n1 and n2, read-out: Primary assay EC50 Mean pM GLP-1R
[14] = tris-lipidated peptides, replicate n1, read-out: Primary assay EC50 GLP-1R n1
[15] = tris-lipidated peptides, replicate n2, read-out: Primary assay EC50 GLP-1R n2

T3 sequence (P43220 24-463): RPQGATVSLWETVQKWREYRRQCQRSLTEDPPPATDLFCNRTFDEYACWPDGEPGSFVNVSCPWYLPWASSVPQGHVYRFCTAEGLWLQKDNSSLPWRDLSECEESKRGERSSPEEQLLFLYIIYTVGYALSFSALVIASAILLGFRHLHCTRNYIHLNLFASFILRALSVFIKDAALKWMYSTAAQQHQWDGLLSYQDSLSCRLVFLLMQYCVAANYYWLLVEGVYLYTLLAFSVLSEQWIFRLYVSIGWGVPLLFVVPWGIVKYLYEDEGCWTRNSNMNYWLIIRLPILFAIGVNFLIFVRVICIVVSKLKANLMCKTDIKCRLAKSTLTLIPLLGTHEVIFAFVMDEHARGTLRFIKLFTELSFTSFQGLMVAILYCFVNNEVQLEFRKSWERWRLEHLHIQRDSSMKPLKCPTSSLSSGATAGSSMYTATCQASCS
T1 sequence (P47871 26-477): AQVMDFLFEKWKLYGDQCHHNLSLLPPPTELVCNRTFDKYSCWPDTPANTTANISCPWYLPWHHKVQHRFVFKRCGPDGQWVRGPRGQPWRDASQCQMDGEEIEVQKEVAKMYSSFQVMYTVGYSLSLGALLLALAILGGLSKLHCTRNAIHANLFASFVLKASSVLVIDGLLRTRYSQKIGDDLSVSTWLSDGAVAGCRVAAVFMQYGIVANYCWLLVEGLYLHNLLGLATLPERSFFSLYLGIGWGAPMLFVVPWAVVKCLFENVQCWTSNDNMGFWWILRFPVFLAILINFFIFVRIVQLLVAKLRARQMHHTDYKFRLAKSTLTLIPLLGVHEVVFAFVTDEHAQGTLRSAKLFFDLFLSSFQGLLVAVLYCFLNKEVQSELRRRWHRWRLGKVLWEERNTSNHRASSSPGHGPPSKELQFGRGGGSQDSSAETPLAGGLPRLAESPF

Structure (SMILES) | EC50 [1, 4] [nM] | EC50 [1, 5] [nM] | EC50 [2, 6] [nM] | EC50 [2, 7] [nM] | EC50 [3, 8] [pM] | EC50 [3, 9] [pM] | EC50 [3, 10] [pM] | EC50 [1, 11] [nM] | EC50 [2, 12] [nM] | EC50 [3, 13] [pM] | EC50 [3, 14] [pM] | EC50 [3, 15] [pM]
CC[C@H](C)[C@H](NC(=O)[C@](C)(Cc1ccccc1)NC(=O)[C@H](CCC(=O)O)NC(=O)[C@](C)(CCCCN)NC(=O)[C@H](C)NC(=O)[C@H](C)NC(=O)[C@H](CCC(=O)O)NC(=O)CNC(=O)[C@H](CCC(=O)O)NC(=O)[C@H](CC(C)C)NC(=O)[C@](C)(Cc1ccccc1)NC(=O)[C@H](CO)NC(=O)[C@](C)(CO)NC(=O)[C@@H](NC(=O)[C@H](CC(=O)O)NC(=O)[C@H](CO)NC(=O)[C@@H](NC(=O)[C@](C)(Cc1ccccc1)NC(=O)[C@H](CO)NC(=O)[C@H](CCCCNC(=O)COCCOCCNC(=O)COCCOCCNC(=O)CC[C@H](NC(=O)CCCCCCCCCCCCCCCCC(=O)O)C(=O)O)NC(=O)[C@H](CCC(=O)O)NC(=O)C(C)(C)NC(=O)[C@@H](N)Cc1c[nH]cn1)[C@@H](C)O)C(C)C)C(=O)N[C@@H](C)C(=O)N[C@@](C)(Cc1ccccc1)C(=O)N[C@H](C(=O)N[C@H](C(=O)N[C@@](C)(CCCCN)C(=O)NCC(=O)NCC(N)=O)C(C)C)C(C)C [compound 125] (H-H[Aib]EK([AEEA-AEEA-γGlu-C18 diacid])S[αMeF]TSDV[αMeS]S[αMeF]LEGEAA[αMeK]E[αMeF]IA[αMeF]VV[αMeK]GG-NH2; N-terminus assumed) | ≥ 25 | ≥ 24.9 | ≥ 25 | ≥ 24.9 | ≥ 25000 | ≥ 24900 | – | – | – | – | – | –
CCCCCCCCCCCCCCCCCC(=O)NCCCCCC(=O)NCCCCCC(=O)NCCCC[C@H](NC(=O)[C@@H](NC(=O)[C@@H](NC(=O)[C@](C)(Cc1ccccc1)NC(=O)[C@H](C)NC(=O)[C@@H](NC(=O)[C@](C)(Cc1ccccc1)NC(=O)[C@H](CCC(=O)O)NC(=O)[C@](C)(CCCCN)NC(=O)[C@H](C)NC(=O)[C@H](C)NC(=O)[C@H](CCC(=O)O)NC(=O)CNC(=O)[C@H](CCC(=O)O)NC(=O)[C@H](CC(C)C)NC(=O)[C@](C)(Cc1ccccc1)NC(=O)[C@H](CO)NC(=O)[C@](C)(CO)NC(=O)[C@@H](NC(=O)[C@H](CC(=O)O)NC(=O)[C@H](CO)NC(=O)[C@@H](NC(=O)[C@](C)(Cc1ccccc1)NC(=O)[C@H](CO)NC(=O)CNC(=O)[C@H](CCC(=O)O)NC(=O)C(C)(C)NC(=O)[C@@H](N)Cc1c[nH]cn1)[C@@H](C)O)C(C)C)[C@@H](C)CC)C(C)C)C(C)C)C(=O)NCC(=O)NCC(N)=O [compound 186] | ≥ 27 | ≥ 27 | ≥ 27 | ≥ 27 | 130 | 50 | 87.5 | – | – | – | – | –
CCCCCCCCCCCC(=O)N[C@@H](CCC(=O)NCCOCCOCC(=O)NCCOCCOCC(=O)NCCCC[C@H](NC(=O)[C@H](CCC(=O)O)NC(=O)CNC(=O)[C@H](CCC(=O)O)NC(=O)[C@H](CC(C)C)NC(=O)[C@H](Cc1ccc(O)cc1)NC(=O)[C@H](CO)NC(=O)[C@H](CO)NC(=O)[C@H](CCCCNC(=O)COCCOCCNC(=O)COCCOCCNC(=O)CC[C@H](NC(=O)CCCCCCCCCCC)C(=O)O)NC(=O)[C@H](CC(=O)O)NC(=O)[C@H](CO)NC(=O)[C@@H](NC(=O)[C@](C)(Cc1ccccc1)NC(=O)[C@H](CO)NC(=O)CNC(=O)[C@H](CCC(=O)O)NC(=O)C(C)(C)NC(=O)[C@@H](N)Cc1c[nH]cn1)[C@@H](C)O)C(=O)N[C@@H](C)C(=O)N[C@@](C)(CCCCN)C(=O)N[C@@H](CCC(=O)O)C(=O)N[C@@H](Cc1ccccc1)C(=O)N[C@H](C(=O)N[C@@H](CCCCNC(=O)COCCOCCNC(=O)COCCOCCNC(=O)CC[C@H](NC(=O)CCCCCCCCCCC)C(=O)O)C(=O)N[C@@H](Cc1ccccc1)C(=O)N[C@H](C(=O)N[C@H](C(=O)N[C@@H](CCC(=O)O)C(=O)NCC(=O)NCC(N)=O)C(C)C)C(C)C)[C@@H](C)CC)C(=O)O [compound 441] (H-H[Aib]EGS[αMeF]TSDK([AEEA-AEEA-γGlu-Lauroyl])SSYLEGEK([AEEA-AEEA-γGlu-Lauroyl])A[αMeK]EFIK([AEEA-AEEA-γGlu-Lauroyl])FVVEGG-NH2) | – | – | – | – | – | – | – | 19.5 | 19.5 | 176 | 110 | 241
CCCCCCCCCCCC(=O)N[C@@H](CCC(=O)NCCOCCOCC(=O)NCCOCCOCC(=O)NCCCC[C@H](NC(=O)[C@H](CCC(=O)O)NC(=O)CNC(=O)[C@H](CCC(=O)O)NC(=O)[C@H](CC(C)C)NC(=O)[C@H](Cc1ccc(O)cc1)NC(=O)[C@H](CO)NC(=O)[C@H](CO)NC(=O)[C@H](CCCCNC(=O)COCCOCCNC(=O)COCCOCCNC(=O)CC[C@H](NC(=O)CCCCCCCCCCC)C(=O)O)NC(=O)[C@H](CC(=O)O)NC(=O)[C@H](CO)NC(=O)[C@@H](NC(=O)[C@](C)(Cc1ccccc1)NC(=O)[C@H](CO)NC(=O)CNC(=O)[C@H](CCC(=O)O)NC(=O)C(C)(C)NC(=O)[C@@H](N)Cc1c[nH]cn1)[C@@H](C)O)C(=O)N[C@@H](C)C(=O)N[C@@](C)(CCCCN)C(=O)N[C@@H](CCC(=O)O)C(=O)N[C@@H](Cc1ccccc1)C(=O)N[C@H](C(=O)N[C@@H](C)C(=O)N[C@@H](Cc1ccccc1)C(=O)N[C@@H](CCCCNC(=O)COCCOCCNC(=O)COCCOCCNC(=O)CC[C@H](NC(=O)CCCCCCCCCCC)C(=O)O)C(=O)N[C@H](C(=O)N[C@@H](CCC(=O)O)C(=O)NCC(=O)NCC(N)=O)C(C)C)[C@@H](C)CC)C(=O)O [compound 473] (H-H[Aib]EGS[αMeF]TSDK([AEEA-AEEA-γGlu-Lauroyl])SSYLEGEK([AEEA-AEEA-γGlu-Lauroyl])A[αMeK]EFIAFK([AEEA-AEEA-γGlu-Lauroyl])VEGG-NH2; N-terminus assumed) | – | – | – | – | – | – | – | 19.6 | 19.6 | 434 | 399 | 470
CCCCCCCCCCCCCCCCCC(=O)NCCCCCC(=O)NCCCCCC(=O)NCCCCCC(=O)NCCCC[C@H](NC(=O)[C@@H](NC(=O)[C@@H](NC(=O)[C@](C)(Cc1ccccc1)NC(=O)[C@H](C)NC(=O)[C@@H](NC(=O)[C@](C)(Cc1ccccc1)NC(=O)[C@H](CCC(=O)O)NC(=O)[C@](C)(CCCCN)NC(=O)[C@H](C)NC(=O)[C@H](C)NC(=O)[C@H](CCC(=O)O)NC(=O)CNC(=O)[C@H](CCC(=O)O)NC(=O)[C@H](CC(C)C)NC(=O)[C@](C)(Cc1ccccc1)NC(=O)[C@H](CO)NC(=O)[C@](C)(CO)NC(=O)[C@@H](NC(=O)[C@H](CC(=O)O)NC(=O)[C@H](CO)NC(=O)[C@@H](NC(=O)[C@](C)(Cc1ccccc1)NC(=O)[C@H](CO)NC(=O)CNC(=O)[C@H](CCC(=O)O)NC(=O)C(C)(C)NC(=O)[C@@H](N)Cc1c[nH]cn1)[C@@H](C)O)C(C)C)[C@@H](C)CC)C(C)C)C(C)C)C(=O)NCC(=O)NCC(N)=O [compound 187] | ≥ 26 | ≥ 26 | ≥ 26 | ≥ 26 | 64 | 31 | 47.4 | – | – | – | – | –
